What was measured:
[1] = system: wild-type mice subjected to myocardial I/R; experiment: In vivo murine myocardial I/R: infarct size per area at risk (Evans blue/TTC); design: species or system mouse; settings: 30 min ischemia, 24 hours reperfusion
BNIP3 = experiment: Mitochondrial BNIP3 level in the AAR after I/R (immunoblot); assay type: in vivo, mouse; settings: 10 minutes reperfusion
caspase-3 = experiment: Caspase-3 activity in the AAR after I/R; assay type: in vivo, mouse; settings: 1 hour reperfusion
[2] = system: human cardiomyocytes (HCM); experiment: DOX induced mitochondrial calcium ion overload in human cardiomyocytes; settings: 10 μM DOX alone or with peptide co-administered; four hours
autophagic flux = experiment: DOX treatment in vivo: autophagic flux (LC3, p62, BNIP3 western blot, chloroquine); settings: DOX alone or with PepB
mitochondria = experiment: DOX treatment in vivo: mitochondrial OCR (Seahorse mitochondrial stress test)
[3] = system: human cardiomyocytes (HCM); experiment: DOX induced mitochondrial ROS generation in human cardiomyocytes; settings: 10 μM DOX alone or with peptide co-administered; four and 22 hours
wild-type mice [4] = experiment: DOX treatment in vivo: cardiac injury markers (cTnI, CK, LDH, BNP); design: species or system mouse; settings: DOX alone or with coadministration of PepB
[5] = system: human cardiomyocytes (HCM); experiment: DOX induced mitochondrial membrane potential destabilization in human cardiomyocytes; settings: 10 μM DOX alone or with peptide co-administered; four and 22 hours
wild-type mice [6] = experiment: DOX treatment in vivo: serial echocardiography; settings: DOX alone or in combination with PepB
Description: Next, we explored the effect of DOX treatment on cardiac function assessed with echocardiographic measurements at three time points (TO, T1 16 days, T2 42 days) (FIG. 19).

[7] = system: human cardiomyocytes (HCM); experiment: DOX induced mPTP opening in human cardiomyocytes (Calcein-AM); settings: 10 μM DOX alone or with peptide co-administered
recombinant BNIP3 = target: T1, recombinant BNIP3 (Mus musculus, UniProt O55003); experiment: BNIP3/peptide microarray (truncation, alanine scan, substitution analysis); assay type: binding; settings: alanine scan and substitution analyses of BNIP3 1-20
T1 construct: purchased Cusabio (obtained via Hölzel Diagnostika, Cologne, Germany) CSB-CF002766Mo-50
T1 sequence (O55003 whole entry, the tested form may be a part): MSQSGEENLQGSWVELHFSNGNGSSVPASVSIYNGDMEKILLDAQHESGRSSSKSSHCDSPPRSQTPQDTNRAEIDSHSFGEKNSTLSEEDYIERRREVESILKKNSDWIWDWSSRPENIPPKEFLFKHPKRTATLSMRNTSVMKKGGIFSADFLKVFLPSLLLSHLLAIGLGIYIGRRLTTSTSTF

## GRKKRRQRRRPQLDAQHESGRSSSKSSHCDSP [TATBNIP3-20C, control peptide: HIV-1 PTD and 20 amino acids derived from BNIP3 42-61]
[1]; injected 5 minutes before reperfusion
  infarct size compared with vehicle treatment: no difference

## GRKKRRQRRRPQMSQSGEENLQGSWVELHFSN [TAT-BNIP3-20A, HIV-1 PTD and 20 amino acids derived from BNIP3 1-20]
BNIP3
  BNIP3 translocation to the mitochondria: prevented BNIP3 translocation
[1]; peptide injected 5 minutes before reperfusion
  reduction in infarct size relative to treatment with vehicle: 41%
caspase-3
  caspase-3 activity: markedly reduced caspase-3 activity

## COc1cccc2c1C(=O)c1c(O)c3c(c(O)c1C2=O)C[C@@](O)(C(=O)CO)C[C@@H]3O[C@H]1C[C@H](N)[C@H](O)[C@H](C)O1 [DOX, doxorubicin]
[2]
  mitochondrial calcium ion overload: induced
Autophagic flux
  BNIP3 accumulation: triggered p62 and BNIP3 accumulation
  p62 accumulation: triggered p62 and BNIP3 accumulation
mitochondria; DOX alone or with PepB
  basal respiration: affected
  maximal respiration: affected
  respiratory reserve capacity (OCR): inhibited
mitochondria; DOX alone or with PepB co-treatment
  Complex II-stimulated respiration: inhibition
[3]
  mitochondrial ROS generation: triggered
wild-type mice [4]
  cardiomyocyte death, cardiac troponin I (cTnl) levels: high cardiac troponin I (cTnl) levels
[5]
  mitochondrial membrane potential: disrupted
wild-type mice [6]
  heart rate: unaffected
[7]
  mPTP opening: activated

## VELHFSN
Recombinant BNIP3
  BNIP3 binding (microarray signal): substantially higher luminescence

From patent US12344644B2, “Amelioration and treatment of infarction damage with a polypeptide segement of BNIP3” (priority 2021, dated 2025)
